Assay results from patent US11312781B2, “Antigen binding molecules that bind LIGHT” (Capella Bioscience Ltd., priority 2018, dated 2022).

How the values were obtained:
[1] = system: CMV stimulated human PBMC; experiment: Human PBMC antigen specific (CMV) recall response in vitro, cytokines by Luminex; format: cell-based; conditions: CMV stimulation, 5 day incubation; for IFN gamma production from PBMC: FIG. 11B
Experimental: In order to test the efficacy of anti-LIGHT mAbs on stimulated PBMC a recall antigen CMV (cytomegalovirus) lysate was utilised to stimulate PBMC from human CMV-positive donors (ImmunXperts, Belgium). 200 000 cells per well in RPMI (Thermofisher cat. no. 11875) plus 10% FBS (GIBCO) was added to CMV lysate (Serion immunologics cat. no. BA109VS, final concentration 10 ug/ml) with test mAbs in a volume of 200 ul. After a 5 day incubation at 37C and 5% CO2 the media was recovered by centrifugation and assayed for cytokines by Luminex immunoassay (ThermoFisher).

[2] = system: DSS-induced colitis in hu-NOG mice; experiment: DSS-induced acute colitis in humanized (hu-NOG) mice; format: in vivo, mouse (hu-NOG); conditions: i.p. days 0, 3, 6, 9, versus IgG control, FIG. 9
Experimental: The experiments were carried out with the NOD/Shi-scid/IL-2Rγnull immunodeficient mouse strain (NOG) engrafted with CD34+ hematopoietic stem cells isolated from human cord blood as described in Manfroi B et al. (Cancer Res. 2017; 77:1097-1107). The reconstitution of the human immune system in the mice occurred for at least 14 weeks, and hu-mice were used that had at least 25% human CD45+/total CD45 cells. Female hu-NOG mice were randomised into 3 groups (n=10) taking into account the humanization rate and the CD34+ cell donors. All animal studies described in this study have been reviewed and approved by the local ethic committee (CELEAG). Mice were allowed to acclimate to the experimental environment for 5 days prior to the beginning of the experiment. The DSS was administrated for 7 days, from day 2 to 8. The DSS (3%) was added to the drinking water (ad libitum) and freshly renewed every two days.
All treatments started before the DSS-induced colitis. 3B04 variant 16 (5 mg/kg) and the isotype control and anti-TNF (Humira) antibodies (10 mg/kg) were administrated i.p. on days 0, 3, 6, 9. The experiment was terminated on day 12. The following parameters were recorded daily for 12 days: body weight in grams (g); diarrhea and stool consistency; bleeding and mortality. The global clinical score was calculated as follows: […]

Compound | IL-17 production from PBMC ([1]; FIG. 11A) | IFN gamma production from PBMC [1] | Global clinical score [2]
C[C@@H]1CCN(C(=O)CC#N)C[C@@H]1N(C)c1ncnc2[nH]ccc12 [Tofacitinib, reference compound] | inhibited | inhibited | 
Opdivo: anti-PD-1 antibody, positive control in the PBMC assay (10 ug/ml) [reference compound] |  | increased | 
adalimumab [humira, reference compound] |  |  | significant drop in the global clinical score from days 9 to 11
